Assay results: patent US20240383856A1 (Zedira GmbH, priority 2021, published 2024)

What was measured:
[1] = Caco-2 permeability assay (CacoReady kit); assay type: in vitro ADME; conditions: human, Caco-2, Caco-2 barrier, CacoReady kit; above 1×10^−6 cm/s classified as permeable
How it was run: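 Intestinal permeability modelled with kit-supplied Caco-2 barriers, run as the maker specifies; each compound reported as Papp.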

[2] = biological target: T1, recombinant human transglutaminase 2 (Homo sapiens, UniProt P21980); test: Transglutaminase assay (DCC-assay): incorporation of dansylcadaverine into dimethylcasein; assay type: biochemical; conditions: recombinant human TG2 10 nM; dansylcadaverine incorporation into dimethylcasein; read-out: IC50 TG2
T1 construct: purchased Zedira T022
T1 sequence (P21980 1-687): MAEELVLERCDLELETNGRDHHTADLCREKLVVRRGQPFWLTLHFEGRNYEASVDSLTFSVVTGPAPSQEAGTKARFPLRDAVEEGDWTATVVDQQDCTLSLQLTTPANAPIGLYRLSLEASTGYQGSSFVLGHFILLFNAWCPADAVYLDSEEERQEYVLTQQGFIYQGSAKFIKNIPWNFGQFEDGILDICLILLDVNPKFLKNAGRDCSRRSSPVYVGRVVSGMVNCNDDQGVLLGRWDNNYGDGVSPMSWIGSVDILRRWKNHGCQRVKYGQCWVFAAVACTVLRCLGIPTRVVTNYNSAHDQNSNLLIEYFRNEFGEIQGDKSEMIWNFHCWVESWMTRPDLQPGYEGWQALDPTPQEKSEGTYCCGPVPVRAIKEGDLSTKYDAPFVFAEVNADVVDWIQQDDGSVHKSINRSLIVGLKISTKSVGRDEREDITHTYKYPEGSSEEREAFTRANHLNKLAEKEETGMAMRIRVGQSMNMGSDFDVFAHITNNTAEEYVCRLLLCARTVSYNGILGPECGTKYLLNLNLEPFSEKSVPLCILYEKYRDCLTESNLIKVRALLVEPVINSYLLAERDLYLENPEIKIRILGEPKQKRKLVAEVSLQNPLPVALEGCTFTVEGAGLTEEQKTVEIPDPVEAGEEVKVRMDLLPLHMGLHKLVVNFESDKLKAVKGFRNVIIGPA
How it was run: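 IC50 is the inhibitor level that blocks 50% of initial activity. Activity is the fluorescence slope (λex 330, λem 500 nm) between 20 and 30 min of a 37 °C run, relative to a 2% DMSO control. The enzyme is recombinant human tissue transglutaminase, 10 nM final, tested against a 1:2 inhibitor dilution series in a pH 8.0 mix with 10 mM CaCl2, 10 mM glutathione, 16.7 µM dansylcadaverine and 4 µM N,N-dimethylcasein.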

[3] = logD by shake flask method (octanol / PBS pH 7.4, HPLC); assay type: physicochemical; conditions: octanol / PBS pH 7.4, shake flask
How it was run: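 LogD obtained by HPLC measurement of how the compound distributes between PBS (pH 7.4) and octanol in a shake-flask experiment.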

| Structure (SMILES) | Papp [1] | IC50 [2] | logD [3] |
| --- | --- | --- | --- |
| CNC(=O)C(=O)CC[C@H](NC(=O)c1cccnn1)C(=O)Nc1cccn(CC(=O)NC2C3CC4CC(C3)CC2C4)c1=O (stereo partly drawn) [II-114, (S)-N1-(1-(2-(2-adamantylamino)-2-oxoethyl)-2-oxo-1,2-dihydropyridin-3-yl)-N6-methyl-5-oxo-2-(pyridazine-3-carboxamido)hexanediamide] | < 1 ×10⁻⁶ cm/s | 40 to 400 nM | < 1 |
| Cc1c(C(=O)N[C@@H](CCC(=O)C(=O)NC2CC2)C(=O)Nc2cccn(CC(=O)NC3C4CC5CC(C4)CC3C5)c2=O)oc2ccccc12 (stereo partly drawn) [II-115, (S)-N1-cyclopropyl-N6-(1-(2-(2-adamantylamino)-2-oxoethyl)-2-oxo-1,2-dihydropyridin-3-yl)-5-(3-methylbenzofuran-2-carboxamido)-2-oxohexanediamide] | 1 to 10 ×10⁻⁶ cm/s | 40 to 400 nM | 3 to 5 |
| C=CCNC(=O)C(=O)CC[C@H](NC(=O)c1oc2ccccc2c1C)C(=O)Nc1cccn(CC(=O)NC2C3CC4CC(C3)CC2C4)c1=O (stereo partly drawn) [II-117, (S)-N1-allyl-N6-(1-(2-(2-adamantylamino)-2-oxoethyl)-2-oxo-1,2-dihydropyridin-3-yl)-5-(3-methylbenzofuran-2-carboxamido)-2-oxohexanediamide] | 1 to 10 ×10⁻⁶ cm/s | 40 to 400 nM | 3 to 5 |
| C=CCNC(=O)C(=O)CC[C@H](NC(=O)c1cc2ccccc2o1)C(=O)Nc1cccn(CC(=O)NC2C3CC4CC(C3)CC2C4)c1=O (stereo partly drawn) [II-119, (S)-N1-allyl-5-(benzofuran-2-carboxamido)-N6-(1-(2-(2-adamantylamino)-2-oxoethyl)-2-oxo-1,2-dihydropyridin-3-yl)-2-oxohexanediamide] | 1 to 10 ×10⁻⁶ cm/s | 40 to 400 nM | 3 to 5 |
| CC(C)NC(=O)C(=O)CC[C@H](NC(=O)c1cc2ccccc2o1)C(=O)Nc1cccn(CC(=O)NC2C3CC4CC(C3)CC2C4)c1=O (stereo partly drawn) [II-120, (S)-2-(benzofuran-2-carboxamido)-N6-isopropyl-N1-(1-(2-(2-adamantylamino)-2-oxoethyl)-2-oxo-1,2-dihydropyridin-3-yl)-5-oxohexanediamide] | 1 to 10 ×10⁻⁶ cm/s | 40 to 400 nM | 3 to 5 |
| O=C(Cn1cccc(NC(=O)[C@H](CCC(=O)C(=O)NC2CC2)NC(=O)c2cc3ccccc3o2)c1=O)NC1C2CC3CC(C2)CC1C3 (stereo partly drawn) [II-121, (S)-2-(benzofuran-2-carboxamido)-N6-cyclopropyl-N1-(1-(2-(2-adamantylamino)-2-oxoethyl)-2-oxo-1,2-dihydropyridin-3-yl)-5-oxohexanediamide] | 1 to 10 ×10⁻⁶ cm/s | 40 to 400 nM | 3 to 5 |
| O=C(Cn1cccc(NC(=O)[C@H](CCC(=O)C(=O)Nc2ccccc2)NC(=O)c2cc3ccccc3o2)c1=O)NC1C2CC3CC(C2)CC1C3 (stereo partly drawn) [II-122, (S)-2-(benzofuran-2-carboxamido)-N1-(1-(2-(2-adamantylamino)-2-oxoethyl)-2-oxo-1,2-dihydropyridin-3-yl)-5-oxo-N6-phenylhexanediamide] | 1 to 10 ×10⁻⁶ cm/s | 400 to 2500 nM | 3 to 5 |
| O=C(Cn1cccc(NC(=O)[C@H](CCC(=O)C(=O)NCc2ccccc2)NC(=O)c2cc3ccccc3o2)c1=O)NC1C2CC3CC(C2)CC1C3 (stereo partly drawn) [II-123, (S)-2-(benzofuran-2-carboxamido)-N6-benzyl-N1-(1-(2-(2-adamantylamino)-2-oxoethyl)-2-oxo-1,2-dihydropyridin-3-yl)-5-oxohexanediamide] | 1 to 10 ×10⁻⁶ cm/s | 400 to 2500 nM | 3 to 5 |
| NC(=O)C(=O)CC[C@H](NC(=O)c1cc2ccccc2o1)C(=O)Nc1cccn(CC(=O)NC2C3CC4CC(C3)CC2C4)c1=O (stereo partly drawn) [II-124, (S)-2-(benzofuran-2-carboxamido)-N1-(1-(2-(2-adamantylamino)-2-oxoethyl)-2-oxo-1,2-dihydropyridin-3-yl)-5-oxohexanediamide] | 1 to 10 ×10⁻⁶ cm/s | 40 to 400 nM | 1 to 3 |
| NC(=O)C(=O)CC[C@H](NC(=O)c1cc(Cl)sc1Cl)C(=O)Nc1cccn(CC(=O)NC2C3CC4CC(C3)CC2C4)c1=O (stereo partly drawn) [II-125, (S)-2-(2,5-dichlorothiophene-3-carboxamido)-N1-(1-(2-(2-adamantylamino)-2-oxoethyl)-2-oxo-1,2-dihydropyridin-3-yl)-5-oxohexanediamide] | 1 to 10 ×10⁻⁶ cm/s | 40 to 400 nM | 1 to 3 |
| Cn1nncc1C(=O)N[C@@H](CCC(=O)C(N)=O)C(=O)Nc1cccn(CC(=O)NC2C3CC4CC(C3)CC2C4)c1=O (stereo partly drawn) [II-127, (S)-N1-(1-(2-(2-adamantylamino)-2-oxoethyl)-2-oxo-1,2-dihydropyridin-3-yl)-2-(1-methyl-1H-1,2,3-triazole-5-carboxamido)-5-oxohexanediamide] | < 1 ×10⁻⁶ cm/s | 40 to 400 nM | < 1 |
| CNC(=O)C(=O)CC[C@H](NC(=O)c1sc(C(F)(F)F)nc1C)C(=O)Nc1cccn(CC(=O)N[C@@H]2C[C@H]3CC[C@@H]2C3)c1=O [II-129, (2S)-N1-(1-(2-((1R,2R,4S)-bicyclo[2.2.1]heptan-2-ylamino)-2-oxoethyl)-2-oxo-1,2-dihydropyridin-3-yl)-N6-methyl-2-(4-methyl-2-(trifluoromethyl)thiazole-5-carboxamido)-5-oxohexanediamide] | < 1 ×10⁻⁶ cm/s | 40 to 400 nM | 1 to 3 |
| CNC(=O)C(=O)CC[C@H](NC(=O)c1cn(C)nn1)C(=O)Nc1cccn(CC(=O)NC2C3CC4CC(C3)CC2C4)c1=O (stereo partly drawn) [II-133, (S)-N1-(1-(2-(2-adamantylamino)-2-oxoethyl)-2-oxo-1,2-dihydropyridin-3-yl)-N6-methyl-2-(1-methyl-1H-1,2,3-triazole-4-carboxamido)-5-oxohexanediamide] | 1 to 10 ×10⁻⁶ cm/s | 400 to 2500 nM | < 1 |

Other lines, results leading:

| Papp [1] | IC50 [2] | logD [3] | Structure (SMILES) |
| --- | --- | --- | --- |
| 1 to 10 ×10⁻⁶ cm/s | 40 to 400 nM | 3 to 5 | CCCCCNC(=O)C(=O)CC[C@H](NC(=O)c1oc2ccccc2c1C)C(=O)Nc1cccn(CC(=O)NC2C3CC4CC(C3)CC2C4)c1=O (stereo partly drawn) [II-116, (S)-N1-(1-(2-(2-adamantylamino)-2-oxoethyl)-2-oxo-1,2-dihydropyridin-3-yl)-2-(3-methylbenzofuran-2-carboxamido)-5-oxo-N6-pentylhexanediamide] |
| 1 to 10 ×10⁻⁶ cm/s | < 40 nM | 1 to 3 | Cc1c(C(=O)N[C@@H](CCC(=O)C(N)=O)C(=O)Nc2cccn(CC(=O)NC3C4CC5CC(C4)CC3C5)c2=O)oc2ccccc12 (stereo partly drawn) [II-118, (S)-N1-(1-(2-(2-adamantylamino)-2-oxoethyl)-2-oxo-1,2-dihydropyridin-3-yl)-2-(3-methylbenzofuran-2-carboxamido)-5-oxohexanediamide] |
| 1 to 10 ×10⁻⁶ cm/s | 40 to 400 nM | < 1 | Cc1nc(C(F)(F)F)sc1C(=O)N[C@@H](CCC(=O)C(N)=O)C(=O)Nc1cccn(CC(=O)NC2C3CC4CC(C3)CC2C4)c1=O (stereo partly drawn) [II-126, (S)-N1-(1-(2-(2-adamantylamino)-2-oxoethyl)-2-oxo-1,2-dihydropyridin-3-yl)-2-(4-methyl-2-(trifluoromethyl)thiazole-5-carboxamido)-5-oxohexanediamide] |
| 1 to 10 ×10⁻⁶ cm/s | 40 to 400 nM | 1 to 3 | CNC(=O)C(=O)CC[C@H](NC(=O)c1cc(Cl)sc1Cl)C(=O)Nc1cccn(CC(=O)N[C@@H]2C[C@H]3CC[C@@H]2C3)c1=O [II-128, (2S)-N1-(1-(2-((1R,2R,4S)-bicyclo[2.2.1]heptan-2-ylamino)-2-oxoethyl)-2-oxo-1,2-dihydropyridin-3-yl)-2-(2,5-dichlorothiophene-3-carboxamido)-N6-methyl-5-oxohexanediamide] |
| < 1 ×10⁻⁶ cm/s | 40 to 400 nM | < 1 | CNC(=O)C(=O)CC[C@H](NC(=O)c1cnnn1C)C(=O)Nc1cccn(CC(=O)N[C@@H]2C[C@H]3CC[C@@H]2C3)c1=O [II-130, (2S)-N1-(1-(2-((1R,2R,4S)-bicyclo[2.2.1]heptan-2-ylamino)-2-oxoethyl)-2-oxo-1,2-dihydropyridin-3-yl)-N6-methyl-2-(1-methyl-1H-1,2,3-triazole-5-carboxamido)-5-oxohexanediamide] |
| < 1 ×10⁻⁶ cm/s | 40 to 400 nM | < 1 | CNC(=O)C(=O)CC[C@H](NC(=O)c1cn[nH]n1)C(=O)Nc1cccn(CC(=O)NC2C3CC4CC(C3)CC2C4)c1=O (stereo partly drawn) [II-131, (S)-N1-(1-(2-(2-adamantylamino)-2-oxoethyl)-2-oxo-1,2-dihydropyridin-3-yl)-N6-methyl-5-oxo-2-(2H-1,2,3-triazole-4-carboxamido) hexanediamide] |
